Measured values published in US20080287515A1, “Topical compositions containing metronidazole” (priority 2007, published 2008).

Columns and labels:
[1] = Physical stability test of aqueous metronidazole compositions (crystal formation or precipitation); assay type: physicochemical; settings: for Concentration required to obtain a stable aqueous solution of 1.0% metronidazole: as the only solubility enhancing agent
Method: The solubility enhancing effect of the combination of urea and hydroxyalkyl urea in increasing the solubility of metronidazole in the aqueous compositions is evaluated by physical stability of the prepared compositions.
Therefore, the formulations are subject to a physical stability test. The protocol for the stability test is as follows: metronidazole and the solubility enhancing agents are combined with water either at room temperature or elevated temperature while stirring until dissolved. The solutions are permitted to cool to room temperature. Customary auxiliaries and additives may be added to the aqueous solutions containing solubilized metronidazole and solubility enhancing agents. The solutions may be gelled by using the suitable gelling agents. The compositions both in gel or solution form are then packaged in clear glass vials and sealed. The vials are kept at room temperature for 24 hours and monitored for crystal formation or precipitation. After 24 hours, the vials are placed in a refrigerator maintained at a temperature of about 4° C. for 7 days. After 7 days, the vials are removed from the refrigerator. Evidence of crystal formation or precipitation in the compositions is examined.
(§1) Each formulation was prepared by combining urea and metronidazole in water (q.s 100%). The mixture was kept at a temperature of about 45° C. while stirring until dissolved. The solutions were permitted to cool to room temperature, packaged and sealed in glass vials. The stability tests described in Example 1 were performed and the test results were recorded.
as §1, with “combining N-2-hydroxyethyl” for “combining”, “45°C.” for “45° C.”
as §1, with “N-2-hydroxyethyl urea, urea,” for “urea”, “kept either at room temperature or” for “kept”, “recorded. […]” for “recorded.”

[2] = at 25 °C; cited from earlier work

## Cc1ncc([N+](=O)[O-])n1CCO [Metronidazole, 1-(2-hydroxyethyl)-2-methyl-5-nitroimidazole]
[1]; 1.0% N-2-hydroxyethyl urea, 7.0% urea, 1.0% metronidazole in water, 7 days at about 4 °C
  Results from stability test: Crystals
[1]; 1.0% N-2-hydroxyethyl urea, 8.0% urea, 1.0% metronidazole in water, 7 days at about 4 °C
  Results from stability test: Clear
[1]; 1.0% N-2-hydroxyethyl urea, 9.0% urea, 1.0% metronidazole in water, 7 days at about 4 °C
  Results from stability test: Clear
[1]; 5.0% N-2-hydroxyethyl urea, 2.0% urea, 1.0% metronidazole in water, 7 days at about 4 °C
  Results from stability test: Clear
[1]; 5.0% N-2-hydroxyethyl urea, 2.0% urea, 1.0% metronidazole in water, 7 days at about 4 °C, listed as metronidazole
  Results from stability test: stable
[1]; 5.0% N-2-hydroxyethyl urea, 3.0% urea, 1.0% metronidazole in water, 7 days at about 4 °C
  Results from stability test: Clear
[1]; 5.0% N-2-hydroxyethyl urea, 4.0% urea, 1.0% metronidazole in water, 7 days at about 4 °C
  Results from stability test: Clear
[1]; 5.0% N-2-hydroxyethyl urea, 5.0% urea, 1.0% metronidazole in water, 7 days at about 4 °C
  Results from stability test: Clear
[1]; 7% urea, 1.0% metronidazole in water, 24 h room temperature then 7 days at about 4 °C
  Results from stability test: Crystals formed
[1]; 8.0% N-2-hydroxyethyl urea, 1.0% urea, 1.0% metronidazole in water, 7 days at about 4 °C
  Results from stability test: Crystals
[1]; 8.0% N-2-hydroxyethyl urea, 8.0% urea, 1.2% metronidazole in water, 7 days at about 4 °C
  Results from stability test: Clear
[1]; 8% urea, 1.0% metronidazole in water, 24 h room temperature then 7 days at about 4 °C
  Results from stability test: Crystals formed
[1]; 9.0% N-2-hydroxyethyl urea, 1.0% urea, 1.0% metronidazole in water, 7 days at about 4 °C
  Results from stability test: Crystals
[1]; 9% urea, 1.0% metronidazole in water, 24 h room temperature then 7 days at about 4 °C
  Results from stability test: Crystals formed
[1]; 10.0% N-2-hydroxyethyl urea, 1.0% urea, 1.0% metronidazole in water, 7 days at about 4 °C
  Results from stability test: Clear
[1]; 10% urea, 1.0% metronidazole in water, 24 h room temperature then 7 days at about 4 °C
  Results from stability test: Clear
[1]; 13% N-2-hydroxyethyl urea, 1.0% metronidazole in water, 24 h room temperature then 7 days at about 4 °C
  Results from stability test: Crystals formed
[1]; 14% N-2-hydroxyethyl urea, 1.0% metronidazole in water, 24 h room temperature then 7 days at about 4 °C
  Results from stability test: Crystals formed
[1]; 15% N-2-hydroxyethyl urea, 1.0% metronidazole in water, 24 h room temperature then 7 days at about 4 °C
  Results from stability test: Crystals formed
[1]; 16% N-2-hydroxyethyl urea, 1.0% metronidazole in water, 24 h room temperature then 7 days at about 4 °C
  Results from stability test: Clear

## NC(=O)NCCO [N-2-hydroxyethyl urea]
[1]
  Concentration required to obtain a stable aqueous solution of 1.0% metronidazole: about 16%
[1]; concentration of urea is 1.0%
  Concentration of N-2-hydroxyethyl urea needed to obtain a stable aqueous solution of 1.0% metronidazole: ≥ 9.0%

## NC(N)=O [urea]
[1]
  Concentration required to obtain a stable aqueous solution of 1.0% metronidazole: about 10%
[1]; concentration of N-2-hydroxyethyl urea is 1.0%
  Concentration of urea needed to obtain a stable aqueous solution of 1.0% metronidazole: ≥ 8.0%
[1]; from Examples 2 and 3
  N-2-hydroxyethyl urea functionally equivalent to 1% urea in inducing the solubility enhancing effect: about 1.6%
[2]
  Water solubility limit: about 50 % by weight
